Measurements taken from patent US20260355165A1, “2,3,4,9-TETRAHYDRO-1H-PYRIDO[3,4-B]INDOLE DERIVATIVES AS ESTROGEN RECEPTOR MODULATORS FOR THE TREATMENT OF CANCER” (Olema Pharmaceuticals, Inc., priority 2022, published 2026).

Molecular target: T1, estrogen receptor (Homo sapiens, UniProt P03372)
T1 construct: endogenous in cells; host or cells: ECC-1 cells
T1 sequence (P03372 1-595): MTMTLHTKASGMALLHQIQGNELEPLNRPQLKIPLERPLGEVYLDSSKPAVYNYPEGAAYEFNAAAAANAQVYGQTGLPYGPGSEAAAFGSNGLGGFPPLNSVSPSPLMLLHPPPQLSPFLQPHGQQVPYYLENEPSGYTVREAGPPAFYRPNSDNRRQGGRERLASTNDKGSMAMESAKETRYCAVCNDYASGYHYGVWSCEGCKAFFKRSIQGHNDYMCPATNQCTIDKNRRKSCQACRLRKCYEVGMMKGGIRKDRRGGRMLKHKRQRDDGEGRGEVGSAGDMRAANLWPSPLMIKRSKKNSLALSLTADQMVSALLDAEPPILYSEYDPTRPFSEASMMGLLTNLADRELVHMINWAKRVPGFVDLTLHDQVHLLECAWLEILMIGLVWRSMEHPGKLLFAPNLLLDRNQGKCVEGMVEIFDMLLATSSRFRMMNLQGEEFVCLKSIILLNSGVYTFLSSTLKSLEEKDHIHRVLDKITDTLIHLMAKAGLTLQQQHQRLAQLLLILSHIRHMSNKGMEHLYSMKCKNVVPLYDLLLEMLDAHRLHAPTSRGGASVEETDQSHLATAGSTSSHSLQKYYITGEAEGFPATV
Test: AP assay (alkaline phosphatase activity in ECC-1 cells), agonist mode (absence of E2) and antagonist mode (presence of 500 pM E2)
Type: cell-based
Conditions: 3 days, AP activity normalized to 500 pM E2 alone, agonist and antagonist mode combined
Procedure, shortened: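 ECC-1 cells in hormone-depleted medium treated with compounds for 3 days, without E2 (agonist mode) or with 500 pM E2 (antagonist mode). AP activity read at 405 nm after p-nitrophenyl phosphate substrate, 40 min at 42 °C. Signal normalized to 500 pM E2 alone.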

| Compound | Activity (estrogen receptor modulation, e.g., agonism and antagonism) |
| --- | --- |
| CCC1CN(Cc2cc3cc([C@@H]4c5[nH]c6ccccc6c5C[C@@H](C)N4CC(C)(C)F)ccc3[nH]2)C1 [Compound I-91, (1R,3R)-1-[2-[(3-ethylazetidin-1-yl)methyl]-1H-indol-5-yl]-2-(2-fluoro-2-methyl-propyl)-3-methyl-1,3,4,9-tetrahydropyrido[3,4-b]indole] | + (estrogen receptor agonism having (i) at least 80% increase in the E2-normalized signal in the AP assay (agonist mode) and (ii) no more than 80% reduction in the E2-normalized signal in the AP assay (antagonist mode)) |
| C[C@@H]1Cc2c([nH]c3ccccc23)[C@@H](c2ccc3nc(CN4CC(CF)C4)oc3c2)N1CC(C)(C)F [Compound I-72, 2-[[3-(fluoromethyl)azetidin-1-yl]methyl]-6-[(1R,3R)-2-(2-fluoro-2-methyl-propyl)-3-methyl-1,3,4,9-tetrahydropyrido[3,4-b]indol-1-yl]-1,3-benzoxazole] | + (estrogen receptor agonism having (i) at least 80% increase in the E2-normalized signal in the AP assay (agonist mode) and (ii) no more than 80% reduction in the E2-normalized signal in the AP assay (antagonist mode)) |
| C[C@@H]1Cc2c([nH]c3ccccc23)[C@@H](c2cc3cc(CN4CC(CF)C4)ccc3[nH]2)N1CC(C)(C)F [Compound I-41, (1R,3R)-1-[5-[[3-(fluoromethyl)azetidin-1-yl]methyl]-1H-indol-2-yl]-2-(2-fluoro-2-methyl-propyl)-3-methyl-1,3,4,9-tetrahydropyrido[3,4-b]indole] | ++ (estrogen receptor antagonism having (i) between 10% and 80% increase in the E2-normalized signal in the AP assay (agonist mode) and (ii) between 10% and 80% reduction in the E2-normalized signal in the AP assay (antagonist mode)) |
| C[C@@H]1Cc2c([nH]c3ccccc23)[C@@H](c2cc(F)c3oc(CN4CC(CF)C4)nc3c2)N1CC(F)(F)CO [Compound I-81, 2,2-difluoro-3-[(1R,3R)-1-[7-fluoro-2-[[3-(fluoromethyl)azetidin-1-yl]methyl]-1,3-benzoxazol-5-yl]-3-methyl-1,3,4,9-tetrahydropyrido[3,4-b]indol-2-yl]propan-1-ol] | + (estrogen receptor agonism having (i) at least 80% increase in the E2-normalized signal in the AP assay (agonist mode) and (ii) no more than 80% reduction in the E2-normalized signal in the AP assay (antagonist mode)) |
| C[C@@H]1Cc2c([nH]c3ccccc23)[C@@H](c2ccc3[nH]c(CN4CC(CF)C4)cc3c2)N1CC(C)(C)F [Compound I-40, (1R,3R)-1-[2-[[3-(fluoromethyl)azetidin-1-yl]methyl]-1H-indol-5-yl]-2-(2-fluoro-2-methyl-propyl)-3-methyl-1,3,4,9-tetrahydropyrido[3,4-b]indole] | +++ (estrogen receptor antagonism (i) with pIC50 greater than 7.5 and at least a 10% reduction in the E2-normalized signal in the AP assay (antagonist mode); and (ii) no more than 10% increase in E2-normalized signal in the AP assay (agonist mode)) |
| CC1CN(Cc2cc3cc([C@@H]4c5[nH]c6ccccc6c5C[C@@H](C)N4CC(C)(C)F)ccc3[nH]2)C1 [Compound I-42, (1R,3R)-2-(2-fluoro-2-methyl-propyl)-3-methyl-1-[2-[(3-methylazetidin-1-yl)methyl]-1H-indol-5-yl]-1,3,4,9-tetrahydropyrido[3,4-b]indole] | ++ (estrogen receptor antagonism having (i) between 10% and 80% increase in the E2-normalized signal in the AP assay (agonist mode) and (ii) between 10% and 80% reduction in the E2-normalized signal in the AP assay (antagonist mode)) |
| C[C@@H]1Cc2c([nH]c3ccccc23)[C@@H](c2n[nH]c3cc(CNCCCF)ccc23)N1CC(C)(C)F [Compound I-14, 3-fluoro-N-[[3-[(1S,3R)-2-(2-fluoro-2-methyl-propyl)-3-methyl-1,3,4,9-tetrahydropyrido[3,4-b]indol-1-yl]-1H-indazol-6-yl]methyl]propan-1-amine] | + (estrogen receptor agonism having (i) at least 80% increase in the E2-normalized signal in the AP assay (agonist mode) and (ii) no more than 80% reduction in the E2-normalized signal in the AP assay (antagonist mode)) |
| CCCN(C)Cc1ccc2c([C@@H]3c4[nH]c5ccccc5c4C[C@@H](C)N3CC(C)(C)F)c[nH]c2c1 [Compound I-7, N-[[3-[(1R,3R)-2-(2-fluoro-2-methyl-propyl)-3-methyl-1,3,4,9-tetrahydropyrido[3,4-b]indol-1-yl]-1H-indol-6-yl]methyl]-N-methyl-propan-1-amine] | + (estrogen receptor agonism having (i) at least 80% increase in the E2-normalized signal in the AP assay (agonist mode) and (ii) no more than 80% reduction in the E2-normalized signal in the AP assay (antagonist mode)) |
| C[C@@H]1Cc2c([nH]c3ccccc23)[C@@H](c2c[nH]c3cc(C(=O)O)ccc23)N1CC(C)(C)F [Compound I-3, 3-[(1R,3R)-2-(2-fluoro-2-methyl-propyl)-3-methyl-1,3,4,9-tetrahydropyrido[3,4-b]indol-1-yl]-1H-indole-6-carboxylic acid] | + (estrogen receptor agonism having (i) at least 80% increase in the E2-normalized signal in the AP assay (agonist mode) and (ii) no more than 80% reduction in the E2-normalized signal in the AP assay (antagonist mode)) |
| C[C@@H]1Cc2c([nH]c3ccccc23)[C@@H](c2n[nH]c3cc(CN(C)CCCF)ccc23)N1CC(C)(C)F [Compound I-12, 3-fluoro-N-[[3-[(1S,3R)-2-(2-fluoro-2-methyl-propyl)-3-methyl-1,3,4,9-tetrahydropyrido[3,4-b]indol-1-yl]-1H-indazol-6-yl]methyl]-N-methyl-propan-1-amine] | + (estrogen receptor agonism having (i) at least 80% increase in the E2-normalized signal in the AP assay (agonist mode) and (ii) no more than 80% reduction in the E2-normalized signal in the AP assay (antagonist mode)) |
| C[C@@H]1Cc2c([nH]c3ccccc23)[C@@H](c2ccc3[nH]c(CN4CC(C)(F)C4)cc3c2)N1CC(C)(C)F [Compound I-102, (1R,3R)-1-[2-[(3-fluoro-3-methyl-azetidin-1-yl)methyl]-1H-indol-5-yl]-2-(2-fluoro-2-methyl-propyl)-3-methyl-1,3,4,9-tetrahydropyrido[3,4-b]indole] | ++ (estrogen receptor antagonism having (i) between 10% and 80% increase in the E2-normalized signal in the AP assay (agonist mode) and (ii) between 10% and 80% reduction in the E2-normalized signal in the AP assay (antagonist mode)) |
| C[C@@H]1Cc2c([nH]c3ccccc23)[C@@H](c2c[nH]c3cc(CN4CC(CF)C4)ccc23)N1CC(F)(F)CO [Compound I-15, 2,2-difluoro-3-[(1R,3R)-1-[6-[[3-(fluoromethyl)azetidin-1-yl]methyl]-1H-indol-3-yl]-3-methyl-1,3,4,9-tetrahydropyrido[3,4-b]indol-2-yl]propan-1-ol] | ++ (estrogen receptor antagonism having (i) between 10% and 80% increase in the E2-normalized signal in the AP assay (agonist mode) and (ii) between 10% and 80% reduction in the E2-normalized signal in the AP assay (antagonist mode)) |
| C[C@@H]1Cc2c([nH]c3ccccc23)[C@@H](c2ccc3[nH]c(CN4CC5(CC(F)C5)C4)cc3c2)N1CC(C)(C)F [Compound I-87, (1R,3R)-1-(2-((6-fluoro-2-azaspiro[3.3]heptan-2-yl)methyl)-1H-indol-5-yl)-2-(2-fluoro-2-methylpropyl)-3-methyl-2,3,4,9-tetrahydro-1H-pyrido[3,4-b]indole] | + (estrogen receptor agonism having (i) at least 80% increase in the E2-normalized signal in the AP assay (agonist mode) and (ii) no more than 80% reduction in the E2-normalized signal in the AP assay (antagonist mode)) |
